Results taken from patent US12030879B2, “Sulfonyl acetamides as NLRP3 inhibitors” (Inflazome Limited, priority 2018, dated 2024).
Counter-ions that a name gives are not always drawn.

Columns and labels:
[1] = molecular target: T1, NLRP3 (Homo sapiens, UniProt Q96P20); experiment: THP-1 cells pyroptosis assay; type: cell-based; settings: LPS 1 μg/ml, compound 3 hrs, nigericin 5 μM 1 hr, resazurin readout
T1 construct: Seed THP-1 cells (25,000 cells/well) containing 1.0 μg/ml LPS in 40 μl of RPMI medium; host or cells: THP-1 cells
T1 sequence (Q96P20 whole entry): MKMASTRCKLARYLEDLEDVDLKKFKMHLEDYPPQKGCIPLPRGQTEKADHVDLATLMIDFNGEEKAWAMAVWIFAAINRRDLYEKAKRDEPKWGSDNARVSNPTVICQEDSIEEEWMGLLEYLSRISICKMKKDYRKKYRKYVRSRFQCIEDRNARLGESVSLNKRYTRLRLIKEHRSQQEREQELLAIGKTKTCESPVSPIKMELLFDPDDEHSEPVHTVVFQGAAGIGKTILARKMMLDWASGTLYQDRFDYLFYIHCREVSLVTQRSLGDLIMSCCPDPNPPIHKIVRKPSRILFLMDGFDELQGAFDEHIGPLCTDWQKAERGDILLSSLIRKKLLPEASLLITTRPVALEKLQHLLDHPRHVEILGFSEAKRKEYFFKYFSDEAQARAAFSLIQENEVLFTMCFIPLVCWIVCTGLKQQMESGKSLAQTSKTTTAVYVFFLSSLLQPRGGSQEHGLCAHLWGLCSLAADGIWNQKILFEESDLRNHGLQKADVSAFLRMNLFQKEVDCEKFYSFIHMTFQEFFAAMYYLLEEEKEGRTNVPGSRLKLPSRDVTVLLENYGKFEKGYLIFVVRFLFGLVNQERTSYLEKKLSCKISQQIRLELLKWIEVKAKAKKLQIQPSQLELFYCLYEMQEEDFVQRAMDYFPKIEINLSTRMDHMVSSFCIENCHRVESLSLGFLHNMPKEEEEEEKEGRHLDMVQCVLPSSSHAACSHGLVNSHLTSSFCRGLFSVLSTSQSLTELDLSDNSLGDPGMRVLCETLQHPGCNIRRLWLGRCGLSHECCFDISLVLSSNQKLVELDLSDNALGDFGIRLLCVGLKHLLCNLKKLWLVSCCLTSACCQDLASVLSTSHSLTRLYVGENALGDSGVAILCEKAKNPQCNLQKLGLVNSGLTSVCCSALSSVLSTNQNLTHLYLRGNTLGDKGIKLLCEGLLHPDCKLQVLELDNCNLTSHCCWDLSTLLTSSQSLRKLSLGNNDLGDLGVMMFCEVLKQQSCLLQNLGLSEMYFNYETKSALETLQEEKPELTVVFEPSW
Procedure, shortened: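 LPS-primed (1 μg/ml) THP-1 cells in serum-free RPMI were treated 3 h with compound (8-point half-log, top 10 μM; 0.1% DMSO), then with 5 μM nigericin for 1 h at 37°C. Viability was read by 100 μM resazurin (ex 560/em 590 nm) after 1–2 h. IC50 came from 4-parameter nonlinear regression.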

[2] = PK protocol, intravenous administration in rats; type: in vivo; settings: rat, plasma, male Sprague Dawley rats, 1 mg/kg; for Vd: read-out: Vdss
Protocol: Pharmacokinetic parameters were determined in male Sprague Dawley rats (Vital River Laboratory Animal Technology Co Ltd, Beijing, China, 7-9 weeks old). Animals were group housed during the study and maintained under a 12 h light/dark cycle.
For intravenous administration, compounds were formulated as a solution in DMSO:PBS [10:90] in 2 mL/kg dosing volume and administered via tail vein.
Serial blood samples (about 200 μL) were taken from each animal at each of 8 time-points post dose (0.083, 0.25, 0.5, 1, 2, 4, 8 and 24 h). Samples were held on ice for no longer than 30 minutes before centrifugation (5,696 rpm (3,000 g) for 15 minutes) for plasma generation. Plasma was frozen on dry ice prior to bioanalysis. PK parameters were generated from LC-MS/MS data using Phoenix WinNonlin 6.3 software.

Structure (SMILES)	IC50 [1]	other results
COc1cc(-c2ccc3c(c2CC(=O)NS(=O)(=O)c2ccc(C(C)(C)O)cc2C)CCC3)ccn1 [Example 85, N-((4-(2-Hydroxypropan-2-yl)-2-methylphenyl)sulfonyl)-2-(5-(2-methoxypyridin-4-yl)-2,3-dihydro-1H-inden-4-yl)acetamide]	≤ 0.5 µM	AUC [2]: 926 ng·h/mL; clearance [2]: 29.1 mL/min/kg; half-life [2]: 1190 min; Vd [2]: 12.2 L/kg
COc1cc(-c2cc(F)cc(C(C)C)c2CC(=O)NS(=O)(=O)c2ccc(C(C)C)cc2)ccn1 [Example 110, 2-(4-Fluoro-2-isopropyl-6-(2-methoxypyridin-4-yl)phenyl)-N-((4-isopropylphenyl)sulfonyl)acetamide]	≤ 1 µM	AUC [2]: 1260 ng·h/mL; clearance [2]: 13.3 mL/min/kg; half-life [2]: 432 min; Vd [2]: 6.72 L/kg
COCC(C)(C)n1ccc(S(=O)(=O)NC(=O)Cc2c(-c3ccnc(OC)c3)cc(F)cc2C(C)C)n1 [Example 194]	≤ 5 µM	–
COc1cc(-c2cc(F)cc(C(C)C)c2CC(=O)NS(=O)(=O)c2ccc(Br)cc2)ccn1 [Example 19]	≤ 1 µM	–
CC(C)c1cc(F)cc(-c2ccncc2)c1CC(=O)NS(=O)(=O)c1cc(CN(C)C)n(C)n1 [Example 73, N-((5-((Dimethylamino)methyl)-1-methyl-H-pyrazol-3-yl)sulfonyl)-2-(4-fluoro-2-isopropyl-6-(pyridin-4-yl)phenyl)acetamide]	≤ 5 µM	–
COc1cc(-c2ccc3c(c2CC(=O)NS(=O)(=O)N(C)C2CCN(C)C2)CCC3)ccn1 (stereo not shown) [Example 55, 2-(5-(2-Methoxypyridin-4-yl)-2,3-dihydro-H-inden-4-yl)-N—(N-methyl-N-(1-methylpyrrolidin-3-yl)sulfamoyl)acetamide, potassium salt]	≤ 5 µM	–
COc1cc(-c2cc(F)cc(C(C)C)c2CC(=O)NS(=O)(=O)c2ccc(C(C)(C)N)c(F)c2)ccn1 [Example 83, N-((4-(2-Aminopropan-2-yl)-3-fluorophenyl)sulfonyl)-2-(4-fluoro-2-isopropyl-6-(2-methoxypyridin-4-yl)phenyl)acetamide]	≤ 5 µM	–
COc1cc(-c2cc(F)cc(C(C)C)c2CC(=O)NS(=O)(=O)C(C)c2ccccc2)ccn1 (stereo not shown) [Example 41, 2-(4-Fluoro-2-isopropyl-6-(2-methoxypyridin-4-yl)phenyl)-N-((1-phenylethyl)sulfonyl)acetamide]	≤ 10 µM	–
COc1cc(-c2cc(F)cc(C(C)C)c2CC(=O)NS(=O)(=O)c2ccc3ccccc3c2)ccn1 [Example 126]	≤ 0.5 µM	–
COc1cc(-c2cc(F)cc(C(C)C)c2CC(=O)NS(=O)(=O)c2cccc(CC#N)c2)ccn1 [Example 32, N-((3-(Cyanomethyl)phenyl)sulfonyl)-2-(4-fluoro-2-isopropyl-6-(2-methoxypyridin-4-yl)phenyl)acetamide]	≤ 1 µM	–
CC(C)c1cc(S(=O)(=O)NC(=O)Cc2c(-c3cccnc3)cc(F)cc2C(C)C)c(F)cc1F [Example 200]	≤ 0.5 µM	–
COc1cc(-c2cc(F)cc(C(C)C)c2CC(=O)NS(=O)(=O)c2ccn(C(C)(C)CN(C)C)n2)ccn1 [Example 192]	≤ 5 µM	–
Cc1cnccc1-c1cc(F)cc(C(C)C)c1CC(=O)NS(=O)(=O)c1cc(C(C)(C)O)cs1 [Example 100, 2-(4-Fluoro-2-isopropyl-6-(3-methylpyridin-4-yl)phenyl)-N-((4-(2-hydroxypropan-2-yl)thiophen-2-yl)sulfonyl)acetamide]	≤ 0.5 µM	–
CC(C)(O)c1csc(S(=O)(=O)NC(=O)Cc2c(-c3ccnc(C#N)c3)ccc3c2CCC3)c1 [Example 22, 2-(5-(2-Cyanopyridin-4-yl)-2,3-dihydro-1H-inden-4-yl)-N-((4-(2-hydroxypropan-2-yl)thiophen-2-yl)sulfonyl)acetamide]	≤ 5 µM	–
CCc1cccc(S(=O)(=O)NC(=O)Cc2c(-c3ccnc(OC)c3)cc(F)cc2C(C)C)c1 [Example 117]	≤ 0.5 µM	–
COc1cc(-c2ccc3c(c2CC(=O)NS(=O)(=O)c2cnc(C(C)(C)O)s2)CCC3)ccn1 [Example 107, N-((2-(2-Hydroxypropan-2-yl)thiazol-5-yl)sulfonyl)-2-(5-(2-methoxypyridin-4-yl)-2,3-dihydro-1H-inden-4-yl)acetamide]	≤ 5 µM	–
COc1cc(-c2cc(F)cc(C(C)C)c2CC(=O)NS(=O)(=O)c2cc(C(C)(C)O)n(C)n2)ccn1 [Example 197]	≤ 5 µM	–
